Reference: patent publication US20190352297A1, “SELECTIVE AURORA A KINASE INHIBITORS” (UNIVERSITAT BERN, priority 2017, published 2019)
Residue numbers refer to the chain shown, from its start. “Also recorded” adds a separate entry of the source.

Columns and labels:
[1] = system: phospho-Histone H3 Ser10 (Aurora B); experiment: Phospho-Histone H3 Ser10 in cells (Aurora B activity); assay type: cell-based, human
Method: (§1) HeLa Kyoto cells were cultured in high-glucose DMEM with GlutaMAX (Life Technologies) media supplemented with 10% fetal calf serum (FCS) in a humidified 5% CO2 incubator at 37° C. For plasmid transfections, cells were seeded at 80-90% confluence. 4 μg of plasmid DNA in 100 μl OptiMEM and 4 μl of Lipofectamine 2000 (Life Technologies) in 100 μl OptiMEM were incubated in parallel for 5 minutes, mixed for 20 minutes and added to each well. All Aurora A clones were constructed using full-length Aurora A as a template with appropriate PCR primer pairs. […] GFP-Aurora AR137A and GFP-Aurora AW277A were engineered using a site directed mutagenesis kit (Agilent Technologies, no. 210515) with appropriate primers. For determining the mitotic index and the chromosome misalignment phenotype, cells were incubated with various concentrations of compounds for 20 h before analysis. Cells were likewise treated with 0.25 μM MLN8237 (Selleckchem, no. S1133) or 5 μM ZM447439 (Selleckchem, no. S1103). For flow cytometry analysis, 50 nM […] and 2.5 μM ZM447439 were used. For rescue experiments, HeLa Kyoto cells were first transfected with GFP-Aurora A, GFP-Aurora AR137A or GFP-Aurora AW277A for 20 h, followed by incubation with 9 for another 20 h before cells were fixed with cold methanol and stained. To assess the impact of compound 9 on cell cycle progression, DNA content was analyzed after propidium iodide staining using FACS (BD Accuri C6 flow cytometer).
For immunofluorescence, cells were fixed in cold methanol, washed in PBT (PBS supplemented with 0.05% Tween-20) and stained with the following primary antibodies: 1:200 rabbit anti-pT288 (Cell Signaling, C39D8), 1:200 rabbit anti-pH3S10 (Cell Signaling, D2C8), 1:500 mouse anti-α-tubulin (Transduction Laboratories, 612709), 1:300 mouse anti-GFP (MAB3580, Millipore), 1:200 anti-TPX2 (Santa Cruz Biotechnology, sc-32863), anti-Aurora A (Invitrogen, 458900). Secondary antibodies were anti-mouse conjugated to Alexa488 or Alexa568, as well as anti-rabbit conjugated to Alexa488 or Alexa568, all used at 1:500 (Invitrogen). Confocal images were acquired on a Zeiss LSM 710 confocal microscope equipped with a Axiocam MRm (B/VVW) CCD camera using a 63×NA 1.0 oil objective and processed in ImageJ and Adobe Photoshop, maintaining relative image intensities within a series.

Aurora A / TPX2 (1-43) = target: T1, Aurora A / TPX2 (1-43) (Homo sapiens, UniProt O14965); experiment: Microscale thermophoresis, Aurora A binding to labeled TPX2 1-43; details: excess 9, three independent measurements
T1 construct: human Aurora A kinase domain (residues 122-403 in the pET24-d vector); His-tag (cleaved yes); made in house; host or cells: E. coli BL21 (DE3) Rosetta (Aurora A); E. coli Bl21 (DE3) (TPX2)
T1 sequence (O14965 122-403): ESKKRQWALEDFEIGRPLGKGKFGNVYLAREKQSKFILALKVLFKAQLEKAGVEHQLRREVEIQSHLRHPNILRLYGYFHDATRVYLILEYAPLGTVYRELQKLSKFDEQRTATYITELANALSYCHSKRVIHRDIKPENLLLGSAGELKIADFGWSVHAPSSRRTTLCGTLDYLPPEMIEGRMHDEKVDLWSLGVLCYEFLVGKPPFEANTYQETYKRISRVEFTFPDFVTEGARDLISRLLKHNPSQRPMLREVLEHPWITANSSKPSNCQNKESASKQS
Method: TPX2 was labelled using the Monolith NT.115 protein labelling kit RED (NanoTemper Technologies). The labelling was performed according to the manufacturer's instructions in the supplied labelling buffer applying a concentration of 44 μM peptide at room temperature for 30 min. Labelled TPX2 was adjusted to 400 nM with final buffer and 0.05% Tween-20 (NanoTemper Technologies). Aurora A kinase with or without ligand was dissolved in final buffer supplemented with 0.05% Tween-20, and a series of 12 dilutions (1:1) was prepared in the identical buffer, keeping the DMSO/ligand concentration constant (final concentrations 0.5% and 125 μM, respectively). Final protein concentrations were between 4.4 nM and 150 μM. […] Thermophoresis was measured at room temperature with 5 s/30 s/5 s laser off/on/off times. […] Data of three independent measurements were analyzed (NT.Analysis software, version 1.5.41, NanoTemper Technologies) using the thermophoresis signal after 10 sec. Points measured above 4.7 μM Aurora A were rejected.

GFP-Aurora A-Trp277Ala = target: T2, GFP-Aurora A-Trp277Ala (Homo sapiens, UniProt O14965, W277A); experiment: Phenotypic rescue, cells expressing mutant Aurora A; assay type: cell-based
T2 construct: All Aurora A clones were constructed using full-length Aurora A as a template; expressed in transfected cells; host or cells: HeLa Kyoto
T2 sequence (O14965 1-403 W277A): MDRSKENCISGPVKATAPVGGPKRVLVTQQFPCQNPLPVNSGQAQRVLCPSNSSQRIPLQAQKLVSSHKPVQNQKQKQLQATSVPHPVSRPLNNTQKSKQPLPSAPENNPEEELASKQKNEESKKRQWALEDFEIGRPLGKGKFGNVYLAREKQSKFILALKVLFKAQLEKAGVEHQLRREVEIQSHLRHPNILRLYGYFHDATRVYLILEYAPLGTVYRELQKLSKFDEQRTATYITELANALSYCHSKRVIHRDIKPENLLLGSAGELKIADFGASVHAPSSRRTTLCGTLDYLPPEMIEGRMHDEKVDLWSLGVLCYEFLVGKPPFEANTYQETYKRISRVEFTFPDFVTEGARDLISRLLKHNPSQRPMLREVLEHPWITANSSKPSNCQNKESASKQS
Method: as §1, with “For rescue experiments, HeLa Kyoto cells were first transfected with GFP-Aurora A, GFP-Aurora AR137A or GFP-Aurora AW277A for 20 h, followed by incubation with 9 for another 20 h before cells were fixed with cold methanol and stained.” left out

GFP-Aurora A-Arg137Ala = target: T3, GFP-Aurora A-Arg137Ala (Homo sapiens, UniProt O14965, R137A); experiment: as above; assay type: cell-based
T3 construct: All Aurora A clones were constructed using full-length Aurora A as a template; expressed in transfected cells; host or cells: HeLa Kyoto
T3 sequence (O14965 1-403 R137A): T2 sequence (O14965 1-403 W277A) with R137A, A277W
Method: as §1, with “For rescue experiments, HeLa Kyoto cells were first transfected with GFP-Aurora A, GFP-Aurora AR137A or GFP-Aurora AW277A for 20 h, followed by incubation with 9 for another 20 h before cells were fixed with cold methanol and stained.” left out

## CCc1ccc(N=C2SC(=Cc3ccnc(Nc4ccc(C(=O)O)cn4)c3)C(=O)N2C)cc1 [Compound 9]
[1]
  effect on Aurora B activity in cells: no effect; also recorded: without impairing Aurora B function
[1]; Aurora B/INCENP, cells, read-out: cellular IC50 (pH3)
  IC50: > 25 µM
[1]; treated cells
  distribution of phospho-Histone H3 Ser10: remained unchanged
Aurora A / TPX2 (1-43)
  binding of Aurora to labeled TPX2 1-43 in the presence of inhibitor: abolished
GFP-Aurora A-Trp277Ala
  sensitivity of GFP-Aurora A-Trp277Ala to inhibitor: insensitive
GFP-Aurora A-Arg137Ala
  sensitivity of GFP-Aurora A-Arg137Ala to inhibitor: insensitive
